Measured values as given in patent US20220265772A1, “USES OF DAN FAMILY BMP ANTAGONISTS FOR INHIBITING OCULAR NEOVASCULARIZATION AND TREATING OCULAR CONDITIONS” (9636137 Canada Inc., priority 2019, published 2022).

Key:
Wnt signaling = test: Canonical Wnt signaling in HUVECs (immunoblotting, β-catenin immunofluorescence); format: cell-based, human
Method: FIG. 12 is a panel with a schematic, pictures showing that Dand5 reduces canonical Wnt signaling in HUVECs. HUVECs were plated to confluence and received a 2 h scratch in the presence or absence of Dand5 ([…]) or IWR1 (3 μM). β-catenin (green) localization was examined by immunofluorescence with phalloidin and DAPI (nuclei) to identify the cell boundaries and nucleus. […] Scale bars, […]).
Cells were washed with cold PBS and extracted in Laemmli's buffer, followed by sonication. Samples were run on SDS-PAGE gels and transferred onto nitrocellulose membranes. Membranes were blocked with 5% Bovine Serum Albumin (BSA) and probed with primary antibodies overnight at 4° C.: beta-Catenin (Cell Signaling Technology), phospho-beta-catenin (Cell Signaling Technology), Axin2 (Cell Signaling Technology), beta-Actin (Santa Cruz Technologies). HRP-conjugated secondary antibodies (Vector Laboratories) were used to detect primary antibodies.
We next evaluated the molecular mechanisms underlying the effects of DAND5 on endothelial cells. […] Wnt signaling regulates fundamental aspects of vascular development, including cell fate specification, proliferation and survival. […] HUVECs were treated for up to 24 hours with DAND5 or IWR-1, an inhibitor of Wnt canonical signaling. Protein extracts were harvested and subjected to immunoblotting against downstream effectors of Wnt signaling. […] The levels of β-catenin at different subcellular localizations are regulated by a variety of processes including site-specific phosphorylation of β-catenin. In the absence of an active Wnt signaling, β-catenin localization at cellular junctions is reduced and cytoplasmic β-catenin associates with the destruction complex (6).

mouse choroidal explants = test: Choroidal explant sprouting in culture; format: cell-based; details: mouse choroidal explants, DAND5 plus NAC
Method: FIG. 1 is a panel with pictures, bar graphs, and graphs showing that Dand5 reduces VEGF-mediated sprouting angiogenesis in cultured endothelial cells. FIG. 1A: HUVECs grown in a fibrinogen gel were treated with VEGF to induce tube formation in the presence or absence of Dand5. […] FIG. 1B: HUVECs were plated to confluency and scratched to stimulate a wound in the presence or absence of Dand5. Scale bar, 100 μm. FIG. 1C: Quantification of tube formation in FIG. 1A n=3, *p<0.05, **p<0.01). FIG. 1E: Choroids were isolated from wild-type mice and cultured in vitro in the absence or presence of Dand5. […] FIG. 1F: Quantification of sprouting areas in choroidal sprouts (n=3, ***p<0.0001). […] FIG. 1H: HUVECs were cultured in the presence or absence of Dand5 and analyzed by immunofluorescence using antibodies against phospho-Histone 3 (PH3), a marker of cellular mitosis, and phalloidin and DAPI (nuclei). […] FIG. 1I: Quantification immunofluorescent staining of phospho-histone 3 positive cells. […] FIG. 1K: Quantification of immunofluorescent staining of cleaved caspase 3 (n=2, n.s.).
To evaluate the cellular mechanisms underlying the inhibitory effects of DAND5 on endothelial cells sprouting, we assessed the effects of DAND5 on endothelial cell migration and proliferation. […]
We exposed or not HUVECs to recombinant DAND5 and measured the concentration of free radicals using DCFDA and MitoSoxRed™. […]

HUVECs = test: Free radicals / ROS in HUVECs (DCFDA, MitoSoxRed); format: cell-based, human; details: HUVECs treated with DAND5 plus NAC
Method: FIG. 8 is a panel with graphs and pictures showing that Dand5 induces mitochondrial oxidative stress and alters ATP levels in HUVECs. FIG. 8A: HUVEC cells were treated with Dand5 in the presence or not of N-acetylcysteine (NAC) for up to 48 hours. Cells were then incubated with H2DCFDA. Hydrogen peroxide treated cells (H2O2) were included as a positive control. Fluorescence was measured at Ex: 485 nm and Em: 535 nm in a plate reader. Relative Fluorescence Units (RFU) were generated by normalizing the reading of each well to Hoescht staining (n=3,*p<0.05 **p<0.001). FIG. 8B: HUVEC cells were treated with Dand5 in for up to 48 hours. Cells were incubated with MitoSox Red. 3-nitro-proprionic acid (3-NP) treated cells were also examined as a positive control. Fluorescence was measured at Ex: 544 nm and Em: 590 nm. Relative Fluorescence Units (RFU) were generated by normalizing the reading of each well to Hoescht staining (n=3,*p<0.05). FIG. 8C: Primary culture of choroidal sprouts were treated with Dand5 in the absence or presence of NAC. FIG. 8D: Quantification of sprouting area by Image J. FIG. 8E: The ratio of NAD+ to NADH in whole cell extracts was determined using an Alcohol Dehydrogenase/Malate Dehydrogenase enzymatic cycling assay. Cells treated to hypoxic conditions (4% O2 for 3 hours) were included as a positive control (n=3,*p<0.05, **p<0.01). Likewise, glucose uptake was reduced in Dand5-treated HUVECs after 1 hour, while lactate levels were increased (lower panel). FIG. 8F: ATP levels were reduced in HUVECs exposed to Dand5 at 1, 6 and 24 hours (n=3,*p=0.05).
We exposed or not HUVECs to recombinant DAND5 and measured the concentration of free radicals using DCFDA and MitoSoxRed™. […] To further test this, we measure the NAD+/NADH ratio in cells treated or not with DAND5. […] Likewise, glucose uptake was reduced and lactate levels were increased in DAND5-treated HUVECs after 1 h (FIG. 8E, lower panel).

geographic atrophy (GA) = details: in vivo; cited from earlier work
Wnt-induced angiogenesis = test: Wnt1 and DAND5 co-injection during retinal vascular development (P1 to P5); format: in vivo, mouse
Method: FIG. 13 is a panel with pictures and graphs showing that Dand5 opposes Wnt1-mediated hypervascularization during retinal vascular development. FIG. 13A: Schematic representation of experimental design. C57B6 pups were injected at P1 with PBS, Dand5 (60 ng/mL), Wnt1, or Wnt1 and Dand5 together at various molar ratios (1N, 5N and 10N). FIG. 13B: Representative images of retinas treated with PBS, Dand5 (1N) or Wnt1 (1N). FIG. 13C: Representative images of retinas treated with PBS or with Wnt1 (5N and 10N) alone or in combination with Danb5. Dand5 Flatmounts retinas were stained with Isolectin B4 to visualize the vasculature. FIG. 13D: Quantification of vascular branches in treated eyes. […] To address the antagonism of DAND5 on Wnt-induced angiogenesis, retinas were injected with recombinant DAND5 (60 ng) with increasing concentrations of Wnt1 (0, 1, 5 or 10× molar ratio) at P1 and retinas were harvested at P5 (FIG. 13A).

[1] = HUVECs treated for up to 24 hours, immunoblotting

Molecule: O=C(Nc1cccc2cccnc12)c1ccc(N2C(=O)[C@@H]3[C@H](C2=O)[C@@H]2C=C[C@H]3C2)cc1 [IWR-1, reference compound]
- levels of Axin2 (Wnt signaling; [1]): increased levels of Axin2
- levels of phosphorylated beta-catenin (Wnt signaling; [1]): increased levels of phosphorylated beta-catenin
- levels of total beta-catenin (Wnt signaling; [1]): decreased levels of total beta-catenin
- cytoplasmic β-catenin (Wnt signaling; confluent HUVECs, 2 h scratch, Dand5 60n/mL or IWR1 3 μM): increased cytoplasmic β-catenin

Molecule: CC(=O)N[C@@H](CS)C(=O)O [NAC, N-acetyl cystein, reference compound]
- growth of DAND5-treated choroidal explants when also treated with NAC (mouse choroidal explants): partially rescued
- reversal of DAND5-induced free radical elevation (HUVECs): could be overcome by exposing cells to N-acetyl cystein (NAC)

Molecule: bevacizumab: VEGF inhibitor
- risk of geographic atrophy (GA) progression (geographic atrophy (GA)): increased risks of geographic atrophy (GA) progression

Molecule: ranibizumab: VEGF inhibitor
- risk of geographic atrophy (GA) progression (geographic atrophy (GA)): increased risks of geographic atrophy (GA) progression

B1: Wnt1: Wnt1 injected into mouse retinas, alone or with DAND5, at increasing molar ratios (protein, UniProt P04426 28-370, looked up)
Proto-oncogene Wnt-1: ANSSGRWWGIVNIASSTNLLTDSKSLQLVLEPSLQLLSRKQRRLIRQNPGILHSVSGGLQSAVRECKWQFRNRRWNCPTAPGPHLFGKIVNRGCRETAFIFAITSAGVTHSVARSCSEGSIESCTCDYRRRGPGGPDWHWGGCSDNIDFGRLFGREFVDSGEKGRDLRFLMNLHNNEAGRTTVFSEMRQECKCHGMSGSCTVRTCWMRLPTLRAVGDVLRDRFDGASRVLYGNRGSNRASRAELLRLEPEDPAHKPPSPHDLVYFEKSPNFCTYSGRLGTAGTAGRACNSSSPALDGCELLCCGRGHRTRTQRVTERCNCTFHWCCHVSCRNCTHTRVLHECL
- retinal vascular density (Wnt-induced angiogenesis; Wnt1 injected at P1, retinas at P5, IsoB4 staining): retinal vascular density was increased
- retinal vascularization at 16.6 and 33.3 pmoles (Wnt-induced angiogenesis; Wnt1 injections of 16.6 and 33.3 pmoles, P1 to P5): significant hypervascularization
- rescue of the inhibitory effects of DAND5 on retinal angiogenesis (Wnt-induced angiogenesis; concomitant injection of DAND5 (60 ng) with Wnt1 (10 molar ratio)): partially rescued the inhibitory effects of DAND5 on retinal angiogenesis
- mutual antagonism on vascular branches (Wnt-induced angiogenesis; quantification of vascular branches in treated eyes): mutually antagonist activities
